Experimental data published in US8697151B2, “Use of an extract from the vigna aconitifolia plant in a cosmetic and/or dermopharmaceutical composition” (BASF Beauty Care Solutions France S.A.S., priority 2001, dated 2014).

Test system: epidermal cell renewal
Assay: Epidermal cell renewal in vivo by the dihydroxyacetone test (DHA test)
Parameters: species or system human
Conditions: for Development of luminescence (D15-D9) / Luminescence (AU) at D 15: 12 volunteers; for Luminescence (AU) at D 15: D15, 6 days after removal of the plasters, 3 mg/cm^2 daily; for Development of luminescence (D15-D9) % referring to control area: Wilcoxon T Test not significant
Description: Comparative in vivo tests were conducted to determine the accelerated epidermal cell renewal activity using 5 emulsions containing 0.2% by weight or 0.5% by weight vitamin A palmitate, 3% by weight or 5% by weight VITOPTINE® (extract of Vigna aconitifolia, Lab. Sero., Pulnoy) versus placebo.
Phase A and phase B were heated to 75° C. The aqueous phase was added to the fatty phase with continuous stirring and cooled to 60° C. by continued stirring. The combined phases were then homogenized for 2 mins. with an Ultraturrax. Finally, the active component is added with stirring and the whole is cooled to room temperature.
The study was carried out as a double blind study involving 12 female volunteers aged between 18 and 55 years.
The measurement parameter was the intensity of tanning of the skin after pigmenting with dihydroxyacetone. The decreasing tanning intensity corresponds to an increase in the renewal of the stratum corneum and the rate of the epidermal cell renewal cycle.
Eight areas (two groups of four) on the inside of the lower forearm were selected: • control area untreated and unpigmented by DHA, • area treated with placebo cream, • area treated with cream containing vitamin A palmitate • area treated with cream containing VITOPTINE®.
A standardized and randomized pretreatment with 3 mg/cm^2 of a preparation was carried out daily for 7 days. After the pretreatment, on day 8, DHA in the form of a face and body tanning lotion containing 5% by weight DHA was applied to the control and treated areas by an occlusive standardized process. On day 9, the occlusive plasters were removed. This was followed for another 6 days (days 10 to 15) by the same treatment as on days 1 to 7. The color intensity of the skin was determined immediately after removal of the plasters and 6 days later by colorimetric measurements (Minolta chromameter) via luminescence.
The first calculation (D15-D9) allowed evaluation of the development between day 9 (removal of the occlusive plasters) and day 15 (6 days after removal of the occlusive plasters). This development is representative of the epidermal cell renewal cycle. The greater the value, the higher the epidermal cell renewal.

## CCCCCCCCCCCCCCCC(=O)OC/C=C(C)/C=C/C=C(C)/C=C/C1=C(C)CCCC1(C)C [vitamin A palmitate]
Cream containing 0.2%
  Development of luminescence (D15-D9): 3.53
  Luminescence (AU) at D 15: 62.18 AU
  Development of luminescence (D15-D9) % referring to control area: 32 (ns) %
Cream containing 0.5%
  Development of luminescence (D15-D9): 3.79
  Luminescence (AU) at D 15: 62.44 AU
  Development of luminescence (D15-D9) % referring to control area: 41 (ns) %
